Among the data in the pKa sets of Baltruschat and Czodrowski (2020) are pKa values, retold here.

Regarding `CCOC(=O)/C(C)=N/O`, where the note is “acidic group”, the pKa worked out at 9.64. As for `NCC(O)CO` (stereo unspecified), the pKa (basic group) was 9.3. Compound `Nc1nc2[nH]cnc2c(O)[nH+]1` returned a pKa (acidic group) of 3.

Compound `CCCCCCNc1ccccc1` displayed a pKa (basic group) of 5.21. On the same count and under the same terms, in the case of `NC12CCC(CC1)C2` it was 10.2. On to `O/N=C/c1cccnc1`, for which the pKa was 10.3 (acidic group) and 3.94 (basic group). In turn, `Nc1cnc2cc3ccccc3cc2c1` yielded a pKa (basic group) of 4.78.

As to `O=C1NC(=O)/C(=C/c2ccccc2)N1`, for the setting “acidic group”, the pKa amounted to 8.6. `c1ccc2c(c1)N1CC[NH+]2CC1` came in with a pKa (basic group) of 2.5.

`NCCCCCCCCCC(=O)[O-]` yielded a pKa (basic group) of 11. Compound `Cc1ccccc1OC(C)C(=O)O` (stereo unspecified) returned a pKa (acidic group) of 3.37. For the setting “basic group”, `Nc1cccc2c1nnn2[C@@H]1C[C@@H](O)[C@H](CO)O1` displayed a pKa of 1.9.

For the setting “acidic group”, `Cc1cc(C#N)cc(C)[n+]1O` came in with a pKa of -0.61. Same read-out and setting: the value for `OCCS` was 9.47. Consider `c1cncc(-c2ccncc2)c1`, for which the pKa (basic group) is 4.85.

For the setting “acidic group”, `COc1cnc(N)s1` gave a pKa of 4.98. Same read-out and setting: the value for `O=[N+]([O-])c1ccc(NS(=O)(=O)c2ccccc2)cc1` was 6.63; that for `Cn1cnc2c1NC=NS2(=O)=O` was 4.45. As to `O=[N+]([O-])c1cnc([O-])[nH+]c1[O-]`, the pKa (basic group) amounted to 5.42. Under “acidic group”, `Cc1ccc(O)c(Cc2cc(C)cc([N+](=O)[O-])c2[O-])c1` returned a pKa of 11.7. The same measure, in the same setting: in the case of `COc1ccc2cc(O)ccc2c1` it was 9.64; in that of `NC(=O)CC(=O)c1ccncc1`, 7.91. Turning to `CN(C)Cc1cccc(NC(=O)/C=N/[O-])c1`, the pKa (basic group) was 9.12.

`CCOC(=O)c1cnc2ccccc2c1[O-]` yielded a pKa (basic group) of 9.62. Same read-out and setting: in the case of `O=C(N[C@@H]1C[C@H]2CC[C@@H](C1)N2Cc1ccccc1)c1cccc2c1OCCO2` it was 8.68; in that of `C/C=C(/C)C(=O)O[C@H]1CC[C@@]2(C)[C@@H]3CC[C@H]4[C@]5(O)C[C@H](O)[C@@]6(O)[C@@H](CN7C[C@@H](C)CC[C@H]7[C@@]6(C)O)[C@]5(O)C[C@@]42O[C@]13O`, 8.85.

In the case of `CC/N=C(\N=[N+]=[N-])c1ccccc1O`, the pKa (acidic group) came out at 9.4.

Consider `O=c1[nH]c(=O)n(-c2ccccc2)[nH]1`, for which the pKa was 4.9 (acidic group) and -4.1 (basic group).

With `C[N+](C)(C)CCc1ccc(O)cc1`, the pKa (acidic group) is 9.8. Take `NC[C@H](O)C(=O)[O-]`: the pKa (basic group) turned out to be 9.27. `CN1C=C(C#N)CCC1` gave a pKa (basic group) of 2.7.

For `O=C1O[C@@H]([C@H](O)[C@@H](O)[C@@H](O)CO)C(O)=C1O`, the pKa (acidic group) was found to be 4.3. `SCc1ccccc1`: under “acidic group”, the pKa is 9.43. On the same count and under the same terms, the value for `COC(=O)c1ccccc1O` was 10.3; that for `O=C(O)c1cc[n+]([O-])cc1` was 2.86.

For `C/N=C(\C)SC`, where the note is “basic group”, the pKa stood at 7.71. On the same count and under the same terms, in the case of `CCN(CC)Cc1cccc(C)c1[O-]` it was 10.9; in that of `CCCCNCC[NH2+]CCCC`, 7.46. The same measure, in the same setting: in the case of `Cc1ncc(CO)c(CN)c1[O-]` it was 10.3; in that of `NCCCCCCN`, 11; in that of `CCCCOC(=O)c1ccc(N)cc1`, 2.47. On the same count and under the same terms, in the case of `CNc1c2ccccc2nc2cccc([N+](=O)[O-])c12` it was 7.2.

The compound `O=c1cccccc1S` displayed a pKa (acidic group) of 5.9. Under “basic group”, `CCc1ccc(OC)c(C(=O)NC[C@H]2CCCN2CC)c1[O-]` registered a pKa of 9.54. With `C=CCC1(C2C=CCCC2)C(=O)[N-]C(=S)NC1=O` (stereo unspecified), the pKa (acidic group) came to 12.2. The same measure, in the same setting: the value for `N#Cc1ccc(-c2nnn[nH]2)cc1` was 3.53. `NCCC[n+]1ccc2ccccc2c1`: the pKa (basic group) was found to be 8.97. On to `CC1(C)C(=O)CC(=O)CC1=O`, for which the pKa (acidic group) turned out to be 4.2. The same measure, in the same setting: in the case of `O=S(=O)(Cc1ccccc1)c1cnn[nH]1` it was 5.15. `Cc1ccccc1N(C)C`: the pKa (basic group) was 6. Same read-out and setting: in the case of `Cc1ncnc2ccccc12` it was 2.52; in that of `CNc1ccc(OC)cc1`, 5.93. Still for that read-out and setting: the value for `CC(=O)c1ccc(N)cc1` was 2.27. Still for that read-out and setting: in the case of `CCn1nnc(CC(=O)O)n1` it was 3.45; in that of `CC1(C)CC(NCCO)CC(C)(C)[NH2+]1`, 7.42. Consider `CC(Br)C(=O)O` (stereo unspecified), for which the pKa (acidic group) is 2.97. In turn, `C[NH+](C)CCCNc1ccnc2c([N+](=O)[O-])cccc12` displayed a pKa (basic group) of 6.91. Same read-out and setting: the value for `Cc1ccc(N(CC2CO2)CC2CO2)cc1` (stereo unspecified) was -0.48.

As for `Cc1nc2ncncc2[nH]1`, the pKa runs as follows: (acidic group) 9.37; (basic group) 2.85. Where the note is “basic group”, `COc1ccc(N(C)CO)cc1` yielded a pKa of 4.59. On the same count and under the same terms, in the case of `CC(C)[C@H]1CC[C@H](C)C[C@@H]1N` it was 10.6. Turning to `N=C(SCc1ccccc1)c1ccccc1`, for the setting “basic group”, the pKa worked out at 4.43.

Under “acidic group”, `Cc1cc(O)cc([N+](C)(C)C)c1` gave a pKa of 8.2. Compound `Cc1[nH]cnc1CSCCNC(=[NH2+])NCCCc1c[nH]cn1` showed a pKa (basic group) of 7.26. As for `[O-]c1ccc(/C=N/O)cc1`, the pKa (acidic group) came out at 12.

In turn, `CNNC` gave a pKa (basic group) of 5.2. On the same count and under the same terms, the value for `COc1ccc(C2CN2)cc1` (stereo unspecified) was 8.7. For the compound `[NH3+]CCC[SeH]`, the pKa (acidic group) stood at 6.27. `CN[C@@H]1C[C@@H]1[NH2+]C` gave a pKa (basic group) of 3.56. On to `Cc1ccc2c(c1[O-])-c1c-2ccc(C)c1O`, for which the pKa (acidic group) is 11.5. The compound `C1CNCNC1` displayed a pKa (basic group) of 8.84. On the same count and under the same terms, in the case of `Cc1ccnc([O-])n1` it was 9.8; in that of `Nn1nnnc1-c1ccccc1`, -0.62; in that of `Nc1ccc2c(c1)Cc1c(O)cccc1-2`, 4.63. For the setting “basic group”, `O=[N+]([O-])c1cccc(Nc2ccccc2)c1` showed a pKa of -1.27.

Consider `C/C(=N/O)c1ccccc1`, for which the pKa (acidic group) stood at 11.5. Compound `NCCCc1cccnc1` registered a pKa (basic group) of 10.1. Take `CCCCCCCP(=O)(CCCCCCC)NC1CCCCC1`: the pKa runs as follows: (acidic group) 12.5; (basic group) 4.87. For the setting “acidic group”, `CCOC(=O)[C@H]1CC(=O)N[C@@H]1C(=O)O` showed a pKa of 3.5.

`O/N=C/NO`: the pKa runs as follows: (acidic group) 10.7; (basic group) 4.05. As for `Oc1nsc2ccccc12`, for the setting “acidic group”, the pKa stood at 7.01.

As for `O=C(O)/C=C/c1c[nH]c[nH+]1`, where the note is “acidic group”, the pKa came to 3.5.

For the compound `C1CCC(C2CCCN2)CC1` (stereo unspecified), the pKa (basic group) turned out to be 10.8. The compound `COc1ccc(S(=O)(=O)Nc2ccccc2)cc1` showed a pKa (acidic group) of 8.66. Under “basic group”, `CCc1ccnc2c1ccc1c(CC)ccnc12` showed a pKa of 5.6. Consider `COC1=CC2CCC1(C(=O)O)CC2`, for which the pKa (acidic group) amounted to 4.45. Where the note is “acidic group”, `O=C(O)c1cccs1` returned a pKa of 3.46. `CC(C)n1cnc2ccccc21` came in with a pKa (basic group) of 5.74. Still for that read-out and setting: the value for `OC[C@H](O)[C@H](O)[C@@H](O)[C@H](O)c1nc2ccccc2[nH]1` was 5.28; that for `Cc1ccc(S(=O)(=O)N2CCNCC2)cc1` was 7.41.

For the compound `Oc1ccc(Cl)c2cccnc12`, where the note is “basic group”, the pKa was determined as 3.68. For the setting “acidic group”, `C[NH2+]CCCNC(=O)/C=N/O` gave a pKa of 8.61. Same read-out and setting: in the case of `COc1ccc(B(O)O)cc1` it was 9.32.

Under “basic group”, `Cc1ccc2c(c1)c1c3n2CCN=C3CCC1` displayed a pKa of 8.57.

As for `CCOC(=O)N1CCc2noc(O)c2CC1`, the pKa (acidic group) was 4.7.

Consider `CC(C)(N)C(C)(C)[NH3+]`, for which the pKa (basic group) turned out to be 6.56.

For the compound `Cc1cc(O)n(-c2nc(O)cc(C)[nH+]2)n1`, the pKa (acidic group) was found to be 5.23.

For the setting “acidic group”, `CCCCCCCCCCCC(=O)O` came in with a pKa of 4.89. For the setting “basic group”, `CC(C)N/C=[NH+]/c1ccc(-c2c[nH]cn2)cc1` gave a pKa of 5.58.

Turning to `Cc1ccc(-c2ncc(-c3ccc(Cl)cc3)o2)cc1`, the pKa (basic group) came out at 0.88. In the case of `Cc1cc(/N=N/c2nc3ccccc3s2)c2cccnc2c1O`, the pKa (acidic group) stood at 7.5. The same measure, in the same setting: in the case of `Oc1cnoc1` it was 7.75; in that of `CC/C([N+](=O)[O-])=[N+](/[O-])O`, 4.1.

In turn, `Nc1ccccc1F` gave a pKa (basic group) of 2.96. Compound `CCCNC(C)C` returned a pKa (basic group) of 11.

`NC(=O)CCCCc1ccncc1` showed a pKa (basic group) of 5.92. The same measure, in the same setting: in the case of `N/C(CC[NH3+])=N\O` it was 3.75; in that of `c1ccc(-c2ccc(NCCN3CCOCC3)nn2)cc1`, 6.74. On the same count and under the same terms, the value for `CC1CN(C)CC[NH+]1C` (stereo unspecified) was 3.93. Regarding `NC(=O)CC(=O)O`, the pKa (acidic group) was determined as 3.61. `CNCC#N`: the pKa (basic group) is 5.26. In the case of `C[n+]1ccsc1N`, the pKa (acidic group) was found to be 9.65. Regarding `COc1cc(S(C)=O)ccc1-c1nc2ncc(N)cc2[nH]1` (stereo unspecified), for the setting “basic group”, the pKa is 3.9.

Under “acidic group”, `COc1ccc(NC=S)cc1` returned a pKa of 11.7. Regarding `CNc1ccc(O)cc1`, under “basic group”, the pKa was determined as 6.

In turn, `N#CCCC(C(=O)O)c1ccccc1` (stereo unspecified) registered a pKa (acidic group) of 3.92. Same read-out and setting: the value for `Cc1ccc(C(=O)O)cc1Br` was 3.96; that for `O=S(=O)([O-])c1ccc(O)c2[nH]ncc12` was 7.6.

Consider `CCN(CC)C(=S)S`, for which the pKa (acidic group) came out at 3.95.

Take `O=C(O)c1cccc(/C=C/[N+](=O)[O-])c1`: the pKa (acidic group) came out at 3.9. This pKa and that of the compound before are within 0.2 log units of each other. The compound `OCCc1ccccn1` gave a pKa (basic group) of 5.37.

The compound `[NH3+]c1ccc(-c2cnc(-c3ccc(Cl)cc3)o2)cc1` displayed a pKa (basic group) of 0.27.

Turning to `O=C(O)C#CSc1ccccc1`, the pKa (acidic group) was 2.11. `NC1CCc2ccccc2C1` (stereo unspecified) showed a pKa (basic group) of 9.97. Take `[NH3+]C(c1cccc(O)c1O)P(=O)([O-])O` (stereo unspecified): the pKa (acidic group) is 5.06. Under “basic group”, `N/C(CC[NH2+]c1ccccc1)=N\O` returned a pKa of 2.45. The same measure, in the same setting: in the case of `CSc1nccc2ccccc12` it was 3.93. Take `C1COCCOCc2n[nH]c(n2)COCCOCCO1`: the pKa (acidic group) is 9.55 and the pKa (basic group) stood at 2.36.

For the setting “basic group”, `NNc1nncc2ccccc12` yielded a pKa of 7.25.

Turning to `CC(C)CN(CC(C)O)CC(C)O` (stereo unspecified), the pKa (basic group) worked out at 8.8. On the same count and under the same terms, the value for `CC(C)CNC(C)C` was 10.6. The same measure, in the same setting: the value for `Cn1ccc(=N)cc1` was 12.5. Where the note is “acidic group”, `CS(=O)(=O)Nc1ccc(CC([NH3+])C(=O)O)cc1` (stereo unspecified) showed a pKa of 3.15. Consider `N#CC(CCCC(=O)O)c1ccccc1` (stereo unspecified), for which, where the note is “acidic group”, the pKa came to 4.64. `COC(=O)C1=CCCNC1` yielded a pKa (basic group) of 8.7.

Consider `Cn1nc(/N=N/O)nc1Cl`, for which, under “acidic group”, the pKa was determined as 5.17. Compound `C/C(CCN(C)C)=N\[O-]` had a pKa (basic group) of 11.2. On the same count and under the same terms, in the case of `CC(C)([NH3+])CN` it was 6.79. In the case of `CN(C)c1cc[nH+]c2c(O)cccc12`, the pKa (acidic group) came to 7.05. `CC(C)NCC(O)c1cccc(F)c1` (stereo unspecified) displayed a pKa (basic group) of 9.48.
